In article PMC9668969 (Nature Communications, 2022):
Where “and” joins values, the source holds several entries; their conditions need not be identical. Equal values may be shown once.

System: WT ELIC
Test: Fluorescence stopped-flow liposomal Tl+ flux assay, symmetric liposomes
Type: biochemical, Erwinia chrysanthemi
Design: Tl+ flux quenching rate, Avg. / Tl+ flux quenching rate: unit not given here
Details: for Avg (stopped-flow fluorescence quenching rate) / Rate (stopped-flow fluorescence quenching rate): WT in PC liposomes; for Avg (stopped-flow fluorescence quenching rate): average of experiments; for Rate (stopped-flow fluorescence quenching rate) / Tl+ flux quenching rate: single experiments
Experimental: The fluorescence sequential-mixing stopped-flow liposomal flux measurements were carried using an SX20 stopped-flow spectrofluorometer (Applied Photophysics) and Pro-Data SX software[13],[30]. 7.5 mg of the respective lipid mixture (POPC, 1:1 POPC: POPE, 1:1 POPC:POPG, 3:1 POPC:POPE, 3:1 POPC:POPG, 2:1:1 POPC:POPE:POPG) was dried in a glass vial to a thin film under a constant stream of N2. The lipids were then further dried under vacuum in a desiccator overnight. The following day the lipids were hydrated in 500 µl of reconstitution buffer (100 mM NaNO3, 10 mM HEPES, pH 7) (Buffer R), 250 µl of 75 mM 8-Aminonaphthalene-1,3,6-Trisulfonic Acid (ANTS, ThermoFisher Scientific) in buffer R, and doped with ~18 mg of CHAPS (Anatrace). The mixture was vortexed and then sonicated with heat until completely solubilized. Following the sonication, the solution was brought to RT then 3.5 µl of 6.7 mg/ml ELIC in Buffer A with 0.02% DDM was added (3 µg per mg of lipid). This combined solution was incubated at RT for 30 min, followed by the addition of 1 ml of 1:1 v/v SM-2 BioBeads in Buffer R and an additional 250 µl of 75 mM ANTS in Buffer R. This mixture was incubated at RT for 2.5 hr with gentle mixing. The liposome suspension was then extruded with an Avanti mini-extruder and 0.1 µm membrane (30×). The extruded liposomes were stored at 13 °C overnight with gentle rotation. The next day, the liposomes were diluted to 2.5 mL using assay buffer (140 mM NaNO3, 10 mM HEPES, pH 7) (Stopped-flow Buffer A), loaded into a PD-10 desalting column (Cytiva), eluted with 3 mL of Stopped-flow Buffer A and subsequently diluted 5-fold with Stopped-flow Buffer A.
Using propylamine as the agonist, the assay and analysis was carried out as previously described[13],[30]. ELIC-containing liposomes were first mixed 1:1 with Buffer A containing 2× the concentration of propylamine. After a variable delay of 10 ms to 25 s, the sample was then mixed 1:1 with a quenching buffer (90 mM NaNO3, 50 mM TlNO3, 10 mM HEPES, pH 7), and ANTS fluorescence (ex. 360 nm, fluorescence above 420 nm) was recorded for 1 s. For each delay time, 5 repeat measurements were obtained. The data were collected using Applied Photophysics Pro-Data SX software. The fluorescence quenching traces were fit to a stretched exponential (Eq. 2a) and the rate of Tl^+ influx was determined at 2 ms (Eq. 2b).2a Ft=F∞+F0−F∞⋅e^−t/τ^β 2b kt=β/τ⋅2ms/τ^(β−1) where Ft, F∞, F0 are the fluorescence at time t, final fluorescence and initial fluorescence. τ is the time constant, β the stretched exponential factor, and kt the calculated rate of Tl^+ influx at 2 ms. The time course of desensitization was also fit to a double exponential and a weighted time constant was calculated as was done for the patch-clamp data using Origin 2019b. All replicates were taken from independent samples.

CCCN [propylamine]
Avg (stopped-flow fluorescence quenching rate) (1 mM PA, delay time 0.1): 0.1082
Avg (stopped-flow fluorescence quenching rate) (1 mM PA, delay time 0.25): 0.06695
Avg (stopped-flow fluorescence quenching rate) (1 mM PA, delay time 0.5): 0.1937
Avg (stopped-flow fluorescence quenching rate) (1 mM PA, delay time 1): 0.6717
Avg (stopped-flow fluorescence quenching rate) (1 mM PA, delay time 2.5): 0.1973
Avg (stopped-flow fluorescence quenching rate) (1 mM PA, delay time 5): 0.1019
Avg (stopped-flow fluorescence quenching rate) (1 mM PA, delay time 10): 0.1686
Avg (stopped-flow fluorescence quenching rate) (3 mM PA, delay time 0): 0
Rate (stopped-flow fluorescence quenching rate) (3 mM PA, delay time 0): 0
Avg (stopped-flow fluorescence quenching rate) (3 mM PA, delay time 0.025): 24.9362
Avg (stopped-flow fluorescence quenching rate) (3 mM PA, delay time 0.05): 279.785
Avg (stopped-flow fluorescence quenching rate) (3 mM PA, delay time 0.1): 279.666
Avg (stopped-flow fluorescence quenching rate) (3 mM PA, delay time 0.25): 300.719
Avg (stopped-flow fluorescence quenching rate) (3 mM PA, delay time 0.5): 352.59
Avg (stopped-flow fluorescence quenching rate) (3 mM PA, delay time 1): 284.973
Avg (stopped-flow fluorescence quenching rate) (3 mM PA, delay time 2.5): 176.344
Avg (stopped-flow fluorescence quenching rate) (3 mM PA, delay time 5): 145.791
Avg (stopped-flow fluorescence quenching rate) (3 mM PA, delay time 10): 107.502
Avg (stopped-flow fluorescence quenching rate) (10 mM PA, delay time 0): 0
Rate (stopped-flow fluorescence quenching rate) (10 mM PA, delay time 0): 0
Avg (stopped-flow fluorescence quenching rate) (10 mM PA, delay time 0.01): 3.242
Avg (stopped-flow fluorescence quenching rate) (10 mM PA, delay time 0.025): 7.793
Avg (stopped-flow fluorescence quenching rate) (10 mM PA, delay time 0.05): 10.0904
Avg (stopped-flow fluorescence quenching rate) (10 mM PA, delay time 0.05 as printed in r31 (between 0.25 and 1)): 13.718
Avg (stopped-flow fluorescence quenching rate) (10 mM PA, delay time 0.1): 10.8806
Avg (stopped-flow fluorescence quenching rate) (10 mM PA, delay time 0.25): 11.6946
Avg (stopped-flow fluorescence quenching rate) (10 mM PA, delay time 1): 9.9293
Avg (stopped-flow fluorescence quenching rate) (10 mM PA, delay time 2.5): 4.516
Avg (stopped-flow fluorescence quenching rate) (10 mM PA, delay time 5): 0.8684
Rate (stopped-flow fluorescence quenching rate) (10 mM PA, delay time 10, listed as PA): 0.134 and 0.08335 and 0.06725
Avg (stopped-flow fluorescence quenching rate) (30 mM PA, delay time 0): 0
Rate (stopped-flow fluorescence quenching rate) (30 mM PA, delay time 0): 0
Avg (stopped-flow fluorescence quenching rate) (30 mM PA, delay time 0.01): 8.996
Avg (stopped-flow fluorescence quenching rate) (30 mM PA, delay time 0.025): 9.575
Avg (stopped-flow fluorescence quenching rate) (30 mM PA, delay time 0.05): 10.6204
Avg (stopped-flow fluorescence quenching rate) (30 mM PA, delay time 0.1): 12.7838
Avg (stopped-flow fluorescence quenching rate) (30 mM PA, delay time 0.25): 12.1642
Avg (stopped-flow fluorescence quenching rate) (30 mM PA, delay time 0.5): 10.2984
Avg (stopped-flow fluorescence quenching rate) (30 mM PA, delay time 1): 6.967
Avg (stopped-flow fluorescence quenching rate) (30 mM PA, delay time 2.5): 2.226
Avg (stopped-flow fluorescence quenching rate) (30 mM PA, delay time 5): 0.2318
Rate (stopped-flow fluorescence quenching rate) (30 mM PA, delay time 25, listed as PA): 0.1998 and 0.3265
Tl+ flux quenching rate (WT 1:1 PC:PE 10 mM PA, delay 0.1 s, listed as PA): 18.5265 and 20.1957 and 27.1402
Tl+ flux quenching rate (WT 1:1 PC:PE 10 mM PA, delay 0.25 s, listed as PA): 14.1307 and 20.5822 and 22.3191
Tl+ flux quenching rate (WT 1:1 PC:PE 10 mM PA, delay 5 s, listed as PA): 8.309 and 12.2434 and 8.587
Tl+ flux quenching rate (WT 3:1 PC:PE 10 mM PA, delay 0.05 s, listed as PA): 17.3372 and 23.7705 and 12.3709
Tl+ flux quenching rate (WT 3:1 PC:PE 10 mM PA, delay 0.1 s, listed as PA): 25.2651 and 29.8644 and 21.5739
Tl+ flux quenching rate (WT 3:1 PC:PE 10 mM PA, delay 0.5 s, listed as PA): 30.0354 and 34.8933 and 24.5328
Tl+ flux quenching rate (WT 3:1 PC:PG 10 mM PA, delay 1 s, listed as PA): 9.374 and 10.6202 and 12.8093
Tl+ flux quenching rate (WT 3:1 PC:PG 10 mM PA, delay 2.5 s, listed as PA): 7.906 and 8.478 and 12.3833
Tl+ flux quenching rate (WT 3:1 PC:PG 10 mM PA, delay 5 s, listed as PA): 5.2352 and 10.1414 and 9.072
Tl+ flux quenching rate (WT PC 10 mM PA, delay 10 s, listed as PA): 0.134 and 0.08335 and 0.06725
